Assay: Compound was tested for the inhibition of [3H]-thymidine uptake in CHO p-5 cells transfected with human Dopamine receptor D4.2

Row | SMILES | IC50
1 | Cc1ccc(N2CCN(Cc3ccc4oc(=O)ccc4c3)CC2)cc1 [6-(4-p-Tolyl-piperazin-1-ylmethyl)-chromen-2-one] | > 1000 nM
2 | Cc1ccc(N2CCN(Cc3ccc4ccc(=O)oc4c3)CC2)cc1Cl [7-[4-(3-Chloro-4-methyl-phenyl)-piperazin-1-ylmethyl]-chromen-2-one] | 5.4 nM

Source: BindingDB's records for doi:10.1021/jm990266k (Warner-Lambert, 1999)
